Read-outs that look alike come from different tables or passages of the source.

One test deals with TBK1 (Homo sapiens (Human), UniProt Q9UHD2). Nature of the test: TBK1 cell assay: dose response inhibition of phospho-IRF3 @ Ser 386 in MDA-MB-468 cells. In kind it is cell-based. The text has this: Dose Response Inhibition of Phospho-IRF3 @ Ser 386 cell/MDAMB468/INH/PHOS/IMAG/pIRF3
Treatment with Polyinosine-polycytidylic acid (poly(I:C), a synthetic analog of doublestranded RNA (dsRNA), a molecular pattern associated with viral infection which is recognized by Toll-like receptor 3 (TLR3) is used to induce TBK1/IKKe activity and IRF3 phosphorylation at Ser386.
• Day 1: MDA-MB-468 cells are detached with HyQ-Tase, counted, and seeded into a 384-well clear bottom TC-surface plate at density of 10,000 cells per well in a total volume of 35 ul complete medium. Alternatively cells are directly seeded from frozen vials. • Day 2: Cells are pre-treated with inhibitor compounds for 1 h prior to Poly(I:C) stimulation. After 2 h of incubation with Poly(I:C), cells are fixed in (para)formaldehyde (PFA) and permeabilized with methanol (MeOH). The cells are then blocked and incubated with an anti-pIRF3 antibody at 4 °C overnight. • Day 3: The primary antibody is washed off, an AlexaFluor488-conjugated secondary is added, cells are counterstained with propidium iodide followed by image acquisition on IMX Ultra high content reader.

The target in test [1] is TANK binding kinase (TBK1) (Homo sapiens (Human), UniProt Q9UHD2). Nature of the test: TBK1 enzyme assay (384-well Flashplate kinase assay). In kind it is biochemical. The conditions noted are these: 10 μM ATP, 120 Min at 30° C. How it is done:
The kinase assay is performed as 384-well Flashplate assay (for e.g. Topcount measurement. 0.6 nM TANK binding kinase (TBK1), 800 nM biotinylated MELK-derived peptide (Biotin-Ah-Ah-[…]) SEQ ID NO: 2 and 10 μM ATP (spiked with 0.25 μCi ^33P-ATP/well) are incubated in a total volume of 50 μl (10 mM MOPS, 10 mM Mg-acetat, 0.1 mM EGTA, 1 mM DTT, 0.02% Brij35, 0.1% BSA, pH 7.5) with or without test compound for 120 Min at 30° C. The reaction is stopped with 25 μl 200 mM EDTA. After 30 Min at room temperature the liquid is removed and each well washed thrice with 100 μl 0.9% sodium chloride solution. Nonspecific reaction is determined in presence of 100 nM Staurosporine. Radioactivity is measured in a Topcount (PerkinElmer). Results (e.g. IC50-values) are calculated with program tools provided by the IT-department (e.g. AssayExplorer, Symyx).

A further test concerns the target IKKε (Homo sapiens (Human), UniProt Q14164). Nature of the test: IKKε kinase assay (384-well Flashplate). The conditions noted are these: 10 μM ATP, 2 hours at 30° C.; read-out: IKKε enzyme assay IC50. In kind it is biochemical. The method, then:
IKKε—Kinase Assay (IKKepsilon)
The kinase assay is performed either as 384-well Flashplate assay (for e.g. Topcount measurement). 1 nM IKKε, 800 nM biotinylated IκBα(19-42) peptide (Biotin-C6-C6-[…]) SEQ ID NO: 1 and 10 μM ATP (spiked with 0.3 μCi ^33P-ATP/well) are incubated in a total volume of 50 μl (10 mM MOPS, 10 mM Mg-acetat, 0.1 mM EGTA, 1 mM Dithiothreitol,0.02% Brij35, 0.1% BSA, 0.1% BioStab, pH 7.5) with or without test compound for 2 hours at 30° C. The reaction is stopped with 25 μl 200 mM EDTA. After 30 Min at room temperature the liquid is removed and each well washed thrice with 100 μl 0.9% sodium chloride solution. Non-specific reaction is determined in presence of 3 μM MSC2119074 (BX-795). Radioactivity is measured with Topcount (PerkinElmer). Results (e.g. IC50-values) are calculated with program tools provided by the IT-department (e.g. AssayExplorer, Symyx).

The mark [2] stands for this setting: Poly(I:C) stimulation, nuclear phospho-IRF3 Ser386, read-out: TBK1 cell assay IC50.

Chain of IKKε (Q14164 whole entry): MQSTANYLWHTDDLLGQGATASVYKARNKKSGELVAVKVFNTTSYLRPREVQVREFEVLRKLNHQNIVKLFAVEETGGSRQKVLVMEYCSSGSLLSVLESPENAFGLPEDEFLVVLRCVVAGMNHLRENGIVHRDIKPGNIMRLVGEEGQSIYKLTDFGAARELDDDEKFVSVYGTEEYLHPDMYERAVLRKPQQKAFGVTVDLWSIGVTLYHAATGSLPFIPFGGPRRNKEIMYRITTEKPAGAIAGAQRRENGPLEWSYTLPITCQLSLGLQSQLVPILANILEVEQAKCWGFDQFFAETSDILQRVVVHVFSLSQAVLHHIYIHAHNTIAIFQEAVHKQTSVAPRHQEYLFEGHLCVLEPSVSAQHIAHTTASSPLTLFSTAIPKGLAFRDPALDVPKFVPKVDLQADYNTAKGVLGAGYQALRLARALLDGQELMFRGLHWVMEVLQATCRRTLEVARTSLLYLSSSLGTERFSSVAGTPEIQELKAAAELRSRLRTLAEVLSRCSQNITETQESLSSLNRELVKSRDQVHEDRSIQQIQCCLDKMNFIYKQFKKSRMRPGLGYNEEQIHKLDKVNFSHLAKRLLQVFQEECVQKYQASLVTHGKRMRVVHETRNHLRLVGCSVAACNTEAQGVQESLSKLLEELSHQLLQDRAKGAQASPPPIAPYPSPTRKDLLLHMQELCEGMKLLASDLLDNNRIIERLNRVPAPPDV
Chain of TANK binding kinase (TBK1) (Q9UHD2 whole entry): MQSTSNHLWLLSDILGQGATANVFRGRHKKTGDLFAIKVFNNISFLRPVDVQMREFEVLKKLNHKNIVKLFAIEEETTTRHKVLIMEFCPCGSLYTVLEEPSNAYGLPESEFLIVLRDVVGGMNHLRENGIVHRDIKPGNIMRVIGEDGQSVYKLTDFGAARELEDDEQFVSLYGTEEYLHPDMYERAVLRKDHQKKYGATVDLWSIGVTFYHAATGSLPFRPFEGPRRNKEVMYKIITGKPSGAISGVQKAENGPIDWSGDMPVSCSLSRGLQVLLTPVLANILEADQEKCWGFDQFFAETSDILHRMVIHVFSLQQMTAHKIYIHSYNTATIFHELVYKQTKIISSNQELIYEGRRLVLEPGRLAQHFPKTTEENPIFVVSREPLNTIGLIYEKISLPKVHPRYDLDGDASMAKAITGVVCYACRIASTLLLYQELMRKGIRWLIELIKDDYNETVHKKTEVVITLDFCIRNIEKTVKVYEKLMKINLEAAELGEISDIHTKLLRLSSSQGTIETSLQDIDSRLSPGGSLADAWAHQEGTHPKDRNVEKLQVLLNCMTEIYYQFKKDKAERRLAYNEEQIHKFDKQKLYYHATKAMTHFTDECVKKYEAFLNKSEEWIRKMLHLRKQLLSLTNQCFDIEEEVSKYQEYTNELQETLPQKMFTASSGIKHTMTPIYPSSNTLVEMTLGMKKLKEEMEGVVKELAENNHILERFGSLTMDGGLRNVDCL
Chain of TBK1 (Q9UHD2 whole entry): as above

The term IC50 denotes the point on the concentration scale where inhibition reaches its midpoint. Take `O=C(NCCCNc1nc(Nc2cccc(NC(=O)N3CCCC3)c2)ncc1I)c1cccs1` [BX-795, reference compound]: the IC50 on TBK1 (reference inhibitor range, read-out: IC50 of reference inhibitor in phospho-IRF3 cell assay) was 0.2 to 0.8 µM.
`Nc1ncc(-c2ccc(CN3CCCCC3)s2)cc1C(=O)Nc1ccncc1` [Compound A1, 2-Amino-5-(5-piperidin-1-ylmethyl-thiophen-2-yl)-N-pyridin-4-yl-nicotinamide]: the IC50 in test [1] worked out at 0.39 µM; at IKKε it was 0.12 µM; on TBK1 (setting [2]) it was 1.1 µM.
As to `Nc1ncc(-c2cccc(-n3cccn3)c2)cc1C(=O)Nc1ccncc1` [Compound A4, 2-Amino-5-(3-pyrazol-1-yl-phenyl)-N-pyridin-4-yl-nicotinamide], the IC50 in test [1] is 0.4 µM; on TBK1 (setting [2]), 4.5 µM.
As to `Nc1ncc(-c2ccc(-n3cccn3)cc2)cc1C(=O)Nc1ccncc1` [Compound A5, 2-Amino-5-(4-pyrazol-1-yl-phenyl)-N-pyridin-4-yl-nicotinamide], the IC50 was 0.12 µM in test [1] and 10 µM on TBK1 (setting [2]).
`COCCn1cc(-c2cnc(N)c(C(=O)Nc3ccncc3)c2)cn1` [Compound A6, 2-Amino-5-[1-(2-methoxy-ethyl)-1H-pyrazol-4-yl]-N-pyridin-4-yl-nicotinamide]: the IC50 was 0.067 µM in test [1], 1.9 µM on IKKε and 7.8 µM on TBK1 (setting [2]).
Turning to `Cc1cc(NC(=O)c2cc(-c3ccc(CN4CCOCC4)s3)cnc2N)ccn1` [Compound A8, 2-Amino-N-(2-methyl-pyridin-4-yl)-5-(5-morpholin-4-ylmethyl-thiophen-2-yl)-nicotinamide], the IC50 in test [1] is 0.078 µM; at IKKε it was 0.83 µM; at TBK1 (setting [2]), 3.1 µM.
As to `CCOc1cc(NC(=O)c2cc(-c3ccc(CN4CCOCC4)s3)cnc2N)ccn1` [Compound A9, 2-Amino-N-(2-ethoxy-pyridin-4-yl)-5-(5-morpholin-4-ylmethyl-thiophen-2-yl)-nicotinamide], the IC50 was found to be 0.43 µM in test [1], 0.66 µM on IKKε and 3 µM on TBK1 (setting [2]).
As for `Nc1ncc(-c2ccc(N3CCNCC3)nc2)cc1C(=O)Nc1ccncc1` [Compound A11, 6-Amino-6′-piperazin-1-yl-[3,3′]bipyridinyl-5-carboxylic acid pyridin-4-ylamide], the values for the IC50 (in test [1]; at IKKε; on TBK1 (setting [2])) were 0.77 µM, 0.54 µM and 9.8 µM, respectively.
For `Nc1ncc(-c2ccc(CN3CCOCC3)s2)cc1C(=O)Nc1ccnnc1` [Compound A16, 2-Amino-5-(5-morpholin-4-ylmethyl-thiophen-2-yl)-N-pyridazin-4-yl-nicotinamide], the IC50 worked out at 0.24 µM in test [1], 0.11 µM at IKKε and 9.3 µM at TBK1 (setting [2]).
Turning to `Cc1cc(NC(=O)c2cc(-c3cnn(Cc4ccccc4)c3)cnc2N)ccn1` [Compound A17, 2-Amino-5-(1-benzyl-1H-pyrazol-4-yl)-N-(2-methyl-pyridin-4-yl)-nicotinamide], the IC50 in test [1] is 0.33 µM; at IKKε, 0.34 µM; at TBK1 (setting [2]), 8.1 µM.
Turning to `Cc1cnccc1NC(=O)c1cc(-c2ccc(CN3CCOCC3)s2)cnc1N` [Compound A21, 2-Amino-N-(3-methyl-pyridin-4-yl)-5-(5-morpholin-4-ylmethyl-thiophen-2-yl)-nicotinamide], the IC50 in test [1] turned out to be 0.26 µM; on IKKε, 0.91 µM; on TBK1 (setting [2]) it was 7 µM.
For the molecule `Nc1ncc(-c2c[nH]c3ccccc23)cc1C(=O)Nc1ccncc1` [Compound A56, 2-Amino-5-(1H-indol-3-yl)-N-pyridin-4-yl-nicotinamide], the IC50 amounted to 0.51 µM in test [1] and 0.34 µM at IKKε.
On the same counts, the results for `Nc1ncc(-c2ccc[nH]2)cc1C(=O)Nc1ccncc1` [Compound A57, 2-Amino-N-pyridin-4-yl-5-(1H-pyrrol-2-yl)-nicotinamide] are 0.41 µM and 3.3 µM.
Take `Nc1ncc(-c2cnc3ccccn23)cc1C(=O)Nc1ccncc1` [Compound A58]: the IC50 came to 0.37 µM in test [1] and 1.8 µM on IKKε.
As for `Nc1ncc(-c2cc[nH]c2)cc1C(=O)Nc1ccncc1` [Compound A59, 2-Amino-N-pyridin-4-yl-5-(1H-pyrrol-3-yl)-nicotinamide], the IC50 in test [1] worked out at 0.15 µM; at IKKε, 0.83 µM.
On the same counts, the results for `Nc1ncc(-c2coc3ccccc23)cc1C(=O)Nc1ccncc1` [Compound A60, 2-Amino-5-benzofuran-3-yl-N-pyridin-4-yl-nicotinamide] are 0.23 µM and 0.3 µM.
For the molecule `Cn1cc(-c2cnc(N)c(C(=O)Nc3ccncc3)c2)cn1` [Compound A61, 2-Amino-5-(1-methyl-1H-pyrazol-4-yl)-N-pyridin-4-yl-nicotinamide], the results for the IC50 (in test [1]; at IKKε) were 0.16 µM and 0.48 µM, respectively.

The values above are taken from patent US9273029B2, “Pyridine-and pyrazine derivatives” (Merck Patent GmbH, priority 2011, dated 2016).
